According to the NIST ThermoML archive (doi:10.1016/j.fluid.2015.10.047):
± gives the expanded uncertainty stated by the source.

What was measured:
[1] = Crystal; DTA
[2] = Molar enthalpy of transition or fusion; details: Crystal; DSC
[3] = molar heat capacity at constant pressure; details: 101.33 kPa, Large sample (1 g) DSC

**Q.** With `CO[C@H]1O[C@H](CO)[C@@H](O)[C@H](O)[C@H]1O` [methyl-α-D-glucopyranoside] as the molecule, how does the Normal melting temperature [1] read?
**A.** Its Normal melting temperature is 169.18 ± 0.5 °C.

**Q.** What about the “Molar enthalpy of transition or fusion” value [2] of the same molecule?
**A.** Its value is 6.7 ± 3.82 kcal/mol.

**Q.** And the “molar heat capacity at constant pressure” value ([3]; 298.15 K, Crystal)?
**A.** Its value is 291.48 ± 7.1 J/K/mol.

**Q.** What about the “molar heat capacity at constant pressure” value ([3]; 303.15 K, Crystal) of the same molecule?
**A.** Its value is 294.68 ± 7.2 J/K/mol.

**Q.** What about the “molar heat capacity at constant pressure” value ([3]; 308.15 K, Crystal) of the same molecule?
**A.** The value was 297.16 ± 7.3 J/K/mol.

**Q.** And the “molar heat capacity at constant pressure” value ([3]; 313.15 K, Crystal)?
**A.** Its value is 300.15 ± 7.3 J/K/mol.

**Q.** What about the “molar heat capacity at constant pressure” value ([3]; 318.15 K, Crystal) of the same molecule?
**A.** The value was 302.5 ± 7.4 J/K/mol.

**Q.** And the “molar heat capacity at constant pressure” value ([3]; 323.15 K, Crystal)?
**A.** The value was 305.37 ± 7.5 J/K/mol.

**Q.** What about the “molar heat capacity at constant pressure” value ([3]; 328.15 K, Crystal) of the same molecule?
**A.** Its value is 308.34 ± 7.5 J/K/mol.

**Q.** What about the “molar heat capacity at constant pressure” value ([3]; 333.15 K, Crystal) of the same molecule?
**A.** Its value is 311.81 ± 7.6 J/K/mol.

**Q.** And the “molar heat capacity at constant pressure” value ([3]; 338.15 K, Crystal)?
**A.** The value was 315.04 ± 7.7 J/K/mol.

**Q.** And the “molar heat capacity at constant pressure” value ([3]; 343.13 K, Crystal)?
**A.** Its value is 317.77 ± 7.8 J/K/mol.

**Q.** What about the “molar heat capacity at constant pressure” value ([3]; 348.15 K, Crystal) of the same molecule?
**A.** Its value is 320.54 ± 7.8 J/K/mol.

**Q.** What about the “molar heat capacity at constant pressure” value ([3]; 353.15 K, Crystal) of the same molecule?
**A.** Its value is 323.46 ± 7.9 J/K/mol.

**Q.** And the “molar heat capacity at constant pressure” value ([3]; 358.15 K, Crystal)?
**A.** The value was 327.84 ± 8 J/K/mol.

**Q.** What about the “molar heat capacity at constant pressure” value ([3]; 363.15 K, Crystal) of the same molecule?
**A.** The value was 331.47 ± 8.1 J/K/mol.

**Q.** And the “molar heat capacity at constant pressure” value ([3]; 368.15 K, Crystal)?
**A.** Its value is 334 ± 8.2 J/K/mol.

**Q.** And the “molar heat capacity at constant pressure” value ([3]; 373.15 K, Crystal)?
**A.** The value was 336.83 ± 8.2 J/K/mol.

**Q.** What about the “molar heat capacity at constant pressure” value ([3]; 378.15 K, Crystal) of the same molecule?
**A.** Its value is 339.69 ± 8.3 J/K/mol.

**Q.** And the “molar heat capacity at constant pressure” value ([3]; 383.15 K, Crystal)?
**A.** The value was 342.52 ± 8.4 J/K/mol.

**Q.** And the “molar heat capacity at constant pressure” value ([3]; 388.15 K, Crystal)?
**A.** Its value is 345.56 ± 8.5 J/K/mol.

**Q.** What about the “molar heat capacity at constant pressure” value ([3]; 393.15 K, Crystal) of the same molecule?
**A.** The value was 348.77 ± 8.5 J/K/mol.

**Q.** And the “molar heat capacity at constant pressure” value ([3]; 398.15 K, Crystal)?
**A.** The value was 352.33 ± 8.6 J/K/mol.

**Q.** What about the “molar heat capacity at constant pressure” value ([3]; 403.15 K, Crystal) of the same molecule?
**A.** Its value is 356.35 ± 8.7 J/K/mol.

**Q.** And the “molar heat capacity at constant pressure” value ([3]; 408.15 K, Crystal)?
**A.** Its value is 360.93 ± 8.8 J/K/mol.

**Q.** And the “molar heat capacity at constant pressure” value ([3]; 413.15 K, Crystal)?
**A.** Its value is 366.26 ± 9 J/K/mol.

**Q.** And the “molar heat capacity at constant pressure” value ([3]; 418.15 K, Crystal)?
**A.** Its value is 369.54 ± 9.1 J/K/mol.

**Q.** What about the “molar heat capacity at constant pressure” value ([3]; 423.15 K, Crystal) of the same molecule?
**A.** Its value is 372.62 ± 9.1 J/K/mol.

**Q.** What about the “molar heat capacity at constant pressure” value ([3]; 428.15 K, Crystal) of the same molecule?
**A.** The value was 376.07 ± 9.2 J/K/mol.

**Q.** And the “molar heat capacity at constant pressure” value ([3]; 433.15 K, Crystal)?
**A.** Its value is 379.37 ± 9.3 J/K/mol.

**Q.** And the “molar heat capacity at constant pressure” value ([3]; 453.15 K, Liquid)?
**A.** The value was 510.58 ± 13 J/K/mol.

**Q.** And the “molar heat capacity at constant pressure” value ([3]; 458.15 K, Liquid)?
**A.** Its value is 511.8 ± 13 J/K/mol.

**Q.** And the “molar heat capacity at constant pressure” value ([3]; 463.15 K, Liquid)?
**A.** The value was 513 ± 13 J/K/mol.

**Q.** And the “molar heat capacity at constant pressure” value ([3]; 468.15 K, Liquid)?
**A.** Its value is 514.17 ± 13 J/K/mol.

**Q.** And the “molar heat capacity at constant pressure” value ([3]; 473.15 K, Liquid)?
**A.** The value was 515.44 ± 13 J/K/mol.

**Q.** What about the “molar heat capacity at constant pressure” value ([3]; 478.15 K, Liquid) of the same molecule?
**A.** Its value is 516.62 ± 13 J/K/mol.

**Q.** What about the “molar heat capacity at constant pressure” value ([3]; 483.15 K, Liquid) of the same molecule?
**A.** The value was 517.93 ± 13 J/K/mol.

**Q.** What about the “molar heat capacity at constant pressure” value ([3]; 488.15 K, Liquid) of the same molecule?
**A.** The value was 519.22 ± 13 J/K/mol.

**Q.** What about the “molar heat capacity at constant pressure” value ([3]; 493.15 K, Liquid) of the same molecule?
**A.** Its value is 520.14 ± 13 J/K/mol.

**Q.** And the “molar heat capacity at constant pressure” value ([3]; 498.15 K, Liquid)?
**A.** Its value is 521.17 ± 13 J/K/mol.

**Q.** And the “molar heat capacity at constant pressure” value ([3]; 503.15 K, Liquid)?
**A.** Its value is 522.4 ± 13 J/K/mol.

**Q.** What about the “molar heat capacity at constant pressure” value ([3]; 508.15 K, Liquid) of the same molecule?
**A.** The value was 523.64 ± 13 J/K/mol.

**Q.** And the “molar heat capacity at constant pressure” value ([3]; 513.15 K, Liquid)?
**A.** Its value is 524.87 ± 13 J/K/mol.
